Consider 1 compound from US9872875B2, “Component and method for treating viral disease” (Institut Pasteur of Shanghai, Chinese Academy of Sciences, priority 2012, dated 2018).

The test concerns EV71 clinical isolate (EV71 FY 573). Description: EV71 infection in ICR newborn mice, serum viral load. Type of test: in vivo. To be noted: 50 mg/kg E02 intraperitoneally; 5 days after infection; infection group average 15.0. The method, then: EV71 clinical isolate (EV71 FY 573) was used to infect three-day-old newborn ICR mice to test E02's efficacy to inhibit EV71 in vivo. Test mice were divided into three groups: drug group, infection group, and placebo group. When mice were two-day-old, drug group were intraperitoneally injected with 50 μl of E02 at a dose of 50 mg/kg. Infection group and placebo group were intraperitoneally injected with 50 μl of DMEM. When three-day-old, drug group was intraperitoneally injected with a mixture (50 μl) of E02 at a dose of 50 mg/kg and EV71 clinical isolate at a dose of 5×10^7 TCID50. Infection group was injected with a mixture of 5×10^7 TCID50 viruses (25 μl) and 25 μl of DMEM. Placebo group was injected with 50 μl of DMEM.
5 days after infection, blood was collected and serum was separated. Viral RNA in serum was extracted (viral RNA extraction kit, QIAGEN QIAamp Viral RNA Mini Kit, cat #52906). Copies of EV71 5′UTR gene and GAPDH gene were detected using one-step real-time quantitative RT-PCR kit (QIAGEN QuantiTect SYBR Green RT-PCR Kit) in ABI 7900HT 384-well plates PCR system.

`Cc1ccc(C(=O)Nc2ccc(S(=O)(=O)O)c3cc(S(=O)(=O)O)cc(S(=O)(=O)O)c23)cc1NC(=O)c1cccc(NC(=O)Nc2cccc(C(=O)Nc3cc(C(=O)Nc4ccc(S(=O)(=O)O)c5cc(S(=O)(=O)O)cc(S(=O)(=O)O)c45)ccc3C)c2)c1` [E02, Suramin Sodium]: the “RNA loading ratio between EV71 and GAPDH in serum, average value of drug group” value is listed as 1.8.
